Source: ChEMBL document CHEMBL4330077, “1,1-Diheterocyclic Ethylenes Derived from Quinaldine and Carbazole as New Tubulin-Polymerization Inhibitors: Synthesis, Metabolism, and Biological Evaluation” (J Med Chem, 2019)
In brackets after ≈: the same amount, converted by molar mass. Activity calls are given as the source filed them. The calls are words filed in the database; no cut-off is given here.

Experiments:
[1] = Inhibition of sheep brain tubulin polymerization by DAPI-fluorescence based fluorimetry; parameters: species or system Ovis aries
HCT-116 [2] = test: cells; settings: Homo sapiens, HCT-116, 72 h
Description: Antiproliferative activity against human HCT116 cells after 72 hrs by MTS assay

HT-29 = test: cells; settings: Homo sapiens, HT-29, 72 h
Description: Antiproliferative activity against human HT-29 cells after 72 hrs by MTS assay

K562 = test: cells; settings: Homo sapiens, K562, 72 h
[3] = Drug metabolism in rat liver microsomes assessed as cytochrome P450-mediated hydroxylated metabolite formation at 100 uM after 6 hrs in presence of NADPH generating system by HPLC-UV-MS analysis; type: ADME
[4] = Aqueous solubility of the compound in phosphate buffer at pH 7.4 after 4 hrs by HPLC-UV analysis; type: physicochemical
[5] = Lipophilicity, log P of the compound after 24 hrs by HPLC analysis; type: physicochemical
Cytochrome P450 [6] = test: Drug metabolism in human liver microsomes assessed as cytochrome P450-mediated N-demethylated metabolite formation at 100 uM after 6 hrs in presence of NADPH generating system by HPLC-UV-MS analysis; type: ADME
K-562R [7] = test: Antiproliferative activity against human K562R cells after 72 hrs by MTS assay; type: functional, cell-based
Cytochrome P450 [8] = test: Drug metabolism in human liver microsomes assessed as cytochrome P450-mediated 6-(1-(3-hydroxy-4-methoxyphenyl)vinyl)-2,3,4-trimethoxyphenol metabolite formation at 100 uM after 6 hrs in presence of NADPH generating system by HPLC-UV-MS analysis; type: ADME
Cytochrome P450 [9] = test: Drug metabolism in human liver microsomes assessed as cytochrome P450-mediated hydroxylated metabolite formation at 100 uM after 6 hrs in presence of NADPH generating system by HPLC-UV-MS analysis; type: ADME
A549 [10] = test: cells; settings: Homo sapiens, A549, 72 h
Description: Antiproliferative activity against human A549 cells after 72 hrs by MTS assay

Cytochrome P450 [11] = test: Drug metabolism in human liver microsomes assessed as cytochrome P450-mediated O-demethylated metabolite formation at 100 uM after 6 hrs in presence of NADPH generating system by HPLC-UV-MS analysis; type: ADME
U-87 MG = test: Antiproliferative activity against human U87MG cells after 72 hrs by MTS assay; type: functional, cell-based, U-87MG ATCC
[12] = Drug metabolism in rat liver microsomes assessed as cytochrome P450-mediated 6-(1-(3-hydroxy-4-methoxyphenyl)vinyl)-2,3,4-trimethoxyphenol metabolite formation at 100 uM after 6 hrs in presence of NADPH generating system by HPLC-UV-MS analysis; type: ADME
HUVEC [13] = test: cells; settings: Homo sapiens, 72 h
Description: Antiproliferative activity against HUVEC after 72 hrs by MTS assay

[14] = Drug metabolism in rat liver microsomes assessed as cytochrome P450-mediated O-demethylated metabolite formation at 100 uM after 6 hrs in presence of NADPH generating system by HPLC-UV-MS analysis; type: ADME
[15] = Drug metabolism in rat liver microsomes assessed as cytochrome P450-mediated N-demethylated metabolite formation at 100 uM after 6 hrs in presence of NADPH generating system by HPLC-UV-MS analysis; type: ADME
Cytochrome P450 [16] = test: Drug metabolism in human liver microsomes assessed as cytochrome P450-mediated 4-(1-(3-hydroxy-4-methoxyphenyl)vinyl)-2,6-dimethoxyphenol metabolite formation at 100 uM after 6 hrs in presence of NADPH generating system by HPLC-UV-MS analysis; type: ADME
[17] = Drug metabolism in rat liver microsomes assessed as cytochrome P450-mediated 4-(1-(3-hydroxy-4-methoxyphenyl)vinyl)-2,6-dimethoxyphenol metabolite formation at 100 uM after 6 hrs in presence of NADPH generating system by HPLC-UV-MS analysis; type: ADME
[18] = Drug metabolism in rat liver microsomes assessed as cytochrome P450-mediated 2-methoxy-5-(1-(3,4,5-trimethoxyphenyl)vinyl)cyclohexa-2,5-diene-1,4-dione metabolite formation at 100 uM after 6 hrs in presence of NADPH generating system by HPLC-UV-MS analysis; type: ADME
Cytochrome P450 [19] = test: Drug metabolism in human liver microsomes assessed as cytochrome P450-mediated 2-methoxy-5-(1-(3,4,5-trimethoxyphenyl)vinyl)cyclohexa-2,5-diene-1,4-dione metabolite formation at 100 uM after 6 hrs in presence of NADPH generating system by HPLC-UV-MS analysis; type: ADME
HUVEC [20] = test: Antiangiogenic activity in HUVEC assessed as inhibition of tube formation after 2 to 6 hrs by matrigel assay; type: functional, cell-based; settings: Homo sapiens
[21] = Metabolic stability in human liver microsomes assessed as parent compound at 100 uM up to […] in presence of NADPH generating system by HPLC-MS/MS analysis; type: ADME, Microsome
K-562R [22] = test: Potency index, ratio of CA-4 IC50 to compound IC50 for antiproliferative activity against human K562R cells; type: functional
HUVEC [23] = test: Antiangiogenic activity in HUVEC assessed as disorganization of the vasculature network at 50 nM after 2 hrs by matrigel assay; type: functional, cell-based; settings: Homo sapiens
[24] = Drug metabolism in rat liver microsomes assessed as cytochrome P450-mediated 3-(1-(2-methylquinolin-4-yl)vinyl)-9H-carbazole metabolite formation at 100 uM after 6 hrs in presence of NADPH generating system by HPLC-UV-MS analysis; type: ADME
HUVEC [25] = test: Antiangiogenic activity in HUVEC assessed as disorganization of the vasculature network at 10 nM after 6 hrs by matrigel assay; type: functional, cell-based; settings: Homo sapiens
K-562R [26] = test: Potency index, ratio of iso-CA-4 IC50 to compound IC50 for antiproliferative activity against human K562R cells; type: functional
Cytochrome P450 [27] = test: Drug metabolism in human liver microsomes assessed as cytochrome P450-mediated 3-(1-(2-methylquinolin-4-yl)vinyl)-9H-carbazole metabolite formation at 100 uM after 6 hrs in presence of NADPH generating system by HPLC-UV-MS analysis; type: ADME
A549 [28] = test: Potency index, ratio of CA-4 IC50 to compound IC50 for antiproliferative activity against human A549 cells; type: functional
[29] = Metabolic stability in rat liver microsomes assessed as parent compound at 100 uM up to […] in presence of NADPH generating system by HPLC-MS/MS analysis; type: ADME, Microsome
HCT-116 [30] = test: Induction of cell cycle arrest in human HCT116 cells assessed as accumulation at G2M phase after 24 hrs by propidium iodide staining based flow cytometry; type: functional
HCT-116 [31] = test: Induction of cell cycle arrest in human HCT116 cells assessed as accumulation at G2M phase at 10 nM after 24 hrs by propidium iodide staining based flow cytometry relative to control; type: functional
Cytochrome P450 [32] = test: Drug level in human liver microsomes treated with isocombratestatin-A4 assessed as CYP450-mediated compound metabolism at 100 uM after 6 hrs in presence of NADPH generating system by HPLC-UV-MS analysis; type: ADME
[33] = Drug level in rat liver microsomes treated with isocombratestatin-A4 assessed as CYP450-mediated compound metabolism at 100 uM after 6 hrs in presence of NADPH generating system by HPLC-UV-MS analysis; type: ADME
[34] = Drug level in rat liver microsomes treated with 9-Methyl-3-(1-(2-methylquinolin-4-yl)vinyl)-9H-carbazole assessed as CYP450-mediated compound metabolism at 100 uM after 6 hrs in presence of NADPH generating system by HPLC-UV-MS analysis; type: ADME
Cytochrome P450 [35] = test: Drug level in human liver microsomes treated with 9-Methyl-3-(1-(2-methylquinolin-4-yl)vinyl)-9H-carbazole assessed as CYP450-mediated compound metabolism at 100 uM after 6 hrs in presence of NADPH generating system by HPLC-UV-MS analysis; type: ADME

For C=C(c1cc(OC)c(OC)c(OC)c1)c1ccc2c(c1)c1ccccc1n2C, the IC50 [1] was 3000 nM and the IC50 (HCT-116 [2]) was 15 nM.

In the case of C=C(c1ccc(OC)c(O)c1)c1cc(OC)c(OC)c(OC)c1, the IC50 (HT-29) is reported as 265 nM, the IC50 (K562) is reported as 2 nM and the Drug metabolism [3] is reported as “Metabolite_Detected”. The IC50 [1] was 2100 nM, the solubility at 4 h [4] was 11.6 µg/mL (≈ 36.7 µM) and the logP ([5]; 24 h) was 3.25. For the same compound, the Drug metabolism (Cytochrome P450 [6]) was “Metabolite_Detected”, the IC50 (K-562R [7]) was 3 nM and the Drug metabolism (Cytochrome P450 [8]) was “Metabolite_Detected”. For the same compound, the Drug metabolism (Cytochrome P450 [9]) was “Metabolite_Detected”, the IC50 (A549 [10]) was 8 nM and the Drug metabolism (Cytochrome P450 [11]) was “Metabolite_Detected”. For the same compound, the IC50 (U-87 MG) was 8.2 nM, the Drug metabolism [12] was “Metabolite_Detected” and the IC50 (HUVEC [13]) was 2 nM. The Drug metabolism [14] was “Metabolite_Detected” and the Drug metabolism [15] was “Metabolite_Detected”.

In the case of COc1ccc(/C=C\c2cc(OC)c(OC)c(OC)c2)cc1O [COMBRETASTATIN A4], the Drug metabolism (Cytochrome P450 [16]) is reported as “Metabolite_Detected”, the IC50 (HT-29) is reported as greater than 8000 nM and the IC50 (K562) is reported as 5 nM. For the same compound, the IC50 [1] was 2200 nM, the IC50 (HCT-116 [2]) was 2.2 nM and the Drug metabolism [17] was “Metabolite_Detected”. The Drug metabolism [18] was “Metabolite_Detected”, the IC50 (A549 [10]) was 200 nM and the IC50 (U-87 MG) was 4 nM. The Drug metabolism (Cytochrome P450 [19]) was “Metabolite_Detected” and the IC50 (HUVEC [13]) was 1.7 nM.

With C=C(c1ccc2c(c1)c1ccccc1n2C)c1cc(C)nc2ccccc12 the IC50 (HT-29) was 3 nM, the Activity (HUVEC [20]) was “Dose-dependent effect” and the IC50 (K562) was 2 nM. For the same compound, the Drug metabolism [3] was “Metabolite_Detected”, the IC50 [1] was 2000 nM and the IC50 (HCT-116 [2]) was 2 nM. The solubility at 4 h [4] was 0.42 µg/mL (≈ 1.21 µM), the logP at 24 h [5] was 5.29 and the Drug metabolism (Cytochrome P450 [6]) was “Metabolite_Detected”. For the same compound, the IC50 (K-562R [7]) was 0.9 nM, the Stability [21] was “Stable” and the Drug metabolism (Cytochrome P450 [9]) was “Metabolite_Detected”. The IC50 (A549 [10]) was 3 nM, the “Ratio IC50” value (K-562R [22]) was 27 and the Activity (HUVEC [23]) was “Active”. For the same compound, the Drug metabolism [24] was “Metabolite_Detected”, the IC50 (U-87 MG) was 1.9 nM and the Activity (HUVEC [25]) was “Active”. For the same compound, the “Ratio IC50” value (K-562R [26]) was 3, the Drug metabolism (Cytochrome P450 [27]) was “Metabolite_Detected” and the IC50 (HUVEC [13]) was 0.81 nM. For the same compound, the “Ratio IC50” value (A549 [28]) was 67, the Stability [29] was “Stable” and the Drug metabolism [15] was “Metabolite_Detected”. For the same compound, the Activity (HCT-116 [30]) was “Dose-dependent effect” and the Activity (HCT-116 [31]) was greater than 90%.

With C=C(c1ccc2c(c1)c1ccccc1n2C)c1cc(C#N)nc2ccccc12 the IC50 [1] was 3600 nM and the IC50 (HCT-116 [2]) was 12 nM.

C=C(c1ccnc(C)c1)c1ccc2c(c1)c1ccccc1n2C gave an IC50 [1] of 6200 nM and an IC50 (HCT-116 [2]) of 19 nM.

For C=C(c1cc(C)nc(C)c1)c1ccc2c(ccn2C)c1, the IC50 (K562) was 1.82 nM, the Drug metabolism [3] was “Metabolite_Detected” and the IC50 [1] was 3700 nM. It also gave an IC50 (HCT-116 [2]) of 3.8 nM, a solubility at 4 h [4] of 0.54 µg/mL (≈ 2.06 µM) and a logP at 24 h [5] of 5.2. For the same compound, the Drug metabolism (Cytochrome P450 [6]) was “Metabolite_Detected”, the IC50 (K-562R [7]) was 0.84 nM and the Drug metabolism (Cytochrome P450 [9]) was “Metabolite_Detected”. It also gave an IC50 (A549 [10]) of 61.9 nM, an IC50 (U-87 MG) of 31.6 nM and an IC50 (HUVEC [13]) of 0.9 nM. For the same compound, the Drug metabolism [15] was “Metabolite_Detected”.

With C=C(C1=CC(=O)C(OC)=CC1=O)c1cc(OC)c(OC)c(OC)c1 the Drug metabolism (Cytochrome P450 [32]) was “Metabolite_Detected” and the Drug metabolism [33] was “Metabolite_Detected”.

In the case of C=C(c1ccc2[nH]c3ccccc3c2c1)c1cc(C)nc2ccccc12, the Drug metabolism [34] is reported as “Metabolite_Detected” and the Drug metabolism (Cytochrome P450 [35]) is reported as “Metabolite_Detected”.

With C=C(c1ccc(OC)c(O)c1)c1cc(OC)c(OC)c(OC)c1O the Drug metabolism (Cytochrome P450 [32]) was “Metabolite_Detected” and the Drug metabolism [33] was “Metabolite_Detected”.

For C=C(c1ccc2c(ccn2C)c1)c1cc(C#N)nc2ccccc12, the Drug metabolism [3] was “Metabolite_Detected”, the solubility at 4 h [4] was 3.11 µg/mL (≈ 10.1 µM) and the logP at 24 h [5] was 2.37. For the same compound, the Drug metabolism (Cytochrome P450 [6]) was “Metabolite_Detected”, the Drug metabolism (Cytochrome P450 [9]) was “Metabolite_Detected” and the Drug metabolism [15] was “Metabolite_Detected”.

In the case of C=C(c1ccc(OC)c(O)c1)c1cc(OC)c(O)c(OC)c1, the Drug metabolism (Cytochrome P450 [32]) is reported as “Metabolite_Detected” and the Drug metabolism [33] is reported as “Metabolite_Detected”.

C=C(c1ccc2c(c1)c1ccccc1n2C)c1nc(C)nc2ccccc12 gave an IC50 [1] of 2100 nM and an IC50 (HCT-116 [2]) of 40 nM.

Work on C=C(c1ccc2c(c1)c1ccccc1n2C)c1cn(C)c(=O)n(C)c1=O yielded an IC50 (HCT-116 [2]) of 195 nM.

In the case of C=C(c1ccc2c(c1)c1cc(F)ccc1n2C)c1cn(C)c(=O)n(C)c1=O, the IC50 (HCT-116 [2]) is reported as 300 nM.
